Source: ChEMBL document CHEMBL1944563, “Separation of Betti Reaction Product Enantiomers: Absolute Configuration and Inhibition of Botulinum Neurotoxin A” (ACS Med Chem Lett, 2011)
pIC50: −log10 of the molar value.

Experiments:
[1] = biological target: Botulinum neurotoxin type A (Clostridium botulinum (strain Hall / ATCC 3502 / NCTC 13319 / Type A)) (UniProt P0DPI1); assay: Inhibition of Clostridium botulinum Hall BoNT/A light chain using SNAP-25 (187 to 203) as substrate at 5 uM by HPLC analysis; settings: Clostridium botulinum A str. Hall
[2] = biological target: Botulinum neurotoxin type A (Clostridium botulinum (strain Hall / ATCC 3502 / NCTC 13319 / Type A)) (UniProt P0DPI1); assay: Inhibition of Clostridium botulinum Hall BoNT/A-induced toxicity in mouse Neuro2a cells assessed as inhibition of SNAP25 substrate cleavage at 60 uM by Western blotting; assay type: cell-based; settings: Clostridium botulinum A str. Hall
[3] = biological target: Botulinum neurotoxin type A (Clostridium botulinum (strain Hall / ATCC 3502 / NCTC 13319 / Type A)) (UniProt P0DPI1); assay: Inhibition of Clostridium botulinum Hall BoNT/A-induced toxicity in mouse Neuro2a cells assessed as inhibition of SNAP25 substrate cleavage at 45 uM by Western blotting; assay type: cell-based; settings: Clostridium botulinum A str. Hall
[4] = biological target: Botulinum neurotoxin type A (Clostridium botulinum (strain Hall / ATCC 3502 / NCTC 13319 / Type A)) (UniProt P0DPI1); assay: Inhibition of Clostridium botulinum Hall BoNT/A-induced toxicity in mouse Neuro2a cells assessed as inhibition of SNAP25 substrate cleavage at 30 uM by Western blotting; assay type: cell-based; settings: Clostridium botulinum A str. Hall
[5] = biological target: Botulinum neurotoxin type A (Clostridium botulinum (strain Hall / ATCC 3502 / NCTC 13319 / Type A)) (UniProt P0DPI1); assay: Inhibition of Clostridium botulinum Hall BoNT/A light chain using SNAP-25 (187 to 203) as substrate at 20 uM by HPLC analysis; settings: Clostridium botulinum A str. Hall
[6] = biological target: Botulinum neurotoxin type A (Clostridium botulinum (strain Hall / ATCC 3502 / NCTC 13319 / Type A), UniProt P0DPI1); assay: Inhibition of Clostridium botulinum Hall BoNT/A light chain using SNAP-25 (187 to 203) as substrate by HPLC analysis; design: species or system Clostridium botulinum A str. Hall
[7] = biological target: Botulinum neurotoxin type A (Clostridium botulinum (strain Hall / ATCC 3502 / NCTC 13319 / Type A)) (UniProt P0DPI1); assay: Inhibition of Clostridium botulinum Hall BoNT/A-induced toxicity in mouse Neuro2a cells assessed as inhibition of SNAP25 substrate cleavage at 15 uM by Western blotting; assay type: cell-based; settings: Clostridium botulinum A str. Hall
[8] = biological target: Botulinum neurotoxin type A (Clostridium botulinum (strain Hall / ATCC 3502 / NCTC 13319 / Type A)) (UniProt P0DPI1); assay: Inhibition of Clostridium botulinum Hall BoNT/A-induced paralysis in mouse phrenic nerve hemidiaphragm assessed as time required for loss of 50% twitch tension at 2 uM; settings: Clostridium botulinum A str. Hall
[9] = biological target: Botulinum neurotoxin type A (Clostridium botulinum (strain Hall / ATCC 3502 / NCTC 13319 / Type A)) (UniProt P0DPI1); assay: Inhibition of Clostridium botulinum Hall BoNT/A-induced paralysis in mouse phrenic nerve hemidiaphragm assessed as delay in paralytic half-time at 2 uM relative to control; settings: Clostridium botulinum A str. Hall

Chain of Botulinum neurotoxin type A (P0DPI1 2-448 limits assumed): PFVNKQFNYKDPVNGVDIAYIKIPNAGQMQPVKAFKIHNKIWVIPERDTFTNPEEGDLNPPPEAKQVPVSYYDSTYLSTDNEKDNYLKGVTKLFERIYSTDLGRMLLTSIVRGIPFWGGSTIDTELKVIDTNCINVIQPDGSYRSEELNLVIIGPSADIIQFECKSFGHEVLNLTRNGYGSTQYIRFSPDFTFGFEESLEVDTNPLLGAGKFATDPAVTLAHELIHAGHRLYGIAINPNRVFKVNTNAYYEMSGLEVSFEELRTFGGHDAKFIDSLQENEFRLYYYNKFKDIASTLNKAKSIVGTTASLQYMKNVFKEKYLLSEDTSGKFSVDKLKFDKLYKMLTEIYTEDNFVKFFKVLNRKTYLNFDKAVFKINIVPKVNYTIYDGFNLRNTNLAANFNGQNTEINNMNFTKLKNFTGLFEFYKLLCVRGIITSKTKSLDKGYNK
Chain of Botulinum neurotoxin type A (Clostridium botulinum (strain Hall / ATCC 3502 / NCTC 13319 / Type A)) (P0DPI1 2-448 limits assumed): as above

| Structure (SMILES) | inhibition [1] [%] | inhibition [2] [%] | inhibition [3] [%] | inhibition [4] [%] | inhibition [5] [%] | pIC50 [6] | inhibition [7] [%] | TIME [8] [h] | fold change (FC) [9] |
| --- | --- | --- | --- | --- | --- | --- | --- | --- | --- |
| Oc1c(C(Nc2ccccn2)c2ccccc2)cc(Cl)c2cccnc12 (racemic) | 88 | 91 | 90 | 74 | 92 | 5.82 | 41 |  |  |
| Oc1c([C@H](Nc2ccccn2)c2ccccc2)cc(Cl)c2cccnc12 | 90 | 96 | 94 | 89 | 94 | 5.96 | 56 | 3.18 | 3 |
| Oc1c([C@@H](Nc2ccccn2)c2ccccc2)cc(Cl)c2cccnc12 | 90 | 96 | 93 | 69 | 91 | 6.00 | 54 | 3.13 | 3 |
